# Test results: patent publication US9005579B2 (priority 2010, dated 2015)
# What was measured:
# [1] = molecular target: sortase (Staphylococcus aureus, UniProt Q2FV99); conditions: in vitro and in vivo; react with Cys184; cited from earlier work
# [2] = tested on: E. coli O111:B4; conditions: overnight incubation, inhibitory concentrations; cited from earlier work
# [3] = tested on: Staphylococci (protein A negative S. aureus strain 8325-4); experiment: Ampicillin and penicillin MIC (serial 2-fold dilutions, microtiter plate); format: cell-based, Staphylococcus aureus; conditions: for highest dilution of antibiotic showing normal growth (sub-MIC used in experiments): 12 h, BHI media; for growth of staphylococci in the presence of sub-MIC of antibiotic: no antibody
# Protocol: The MIC dose of two cell wall affecting antibiotics, ampicillin and penicillin, was determined for the protein A negative S. aureus strain 8325-4.
# Serial 2-fold dilutions of penicillin and ampicillin were prepared in a microtiter plate. Overnight culture of Staphylococci were diluted 1:100 in BHI media and 100 ul was added to each well and the plate incubated for 12 h. Wells without antibiotic served as controls. The highest dilution of antibiotic showing normal growth was used for further experiments. Ampicillin at 0.1 ug/ml and Penicillin at 0.02 ug/ml were used in these experiments.
# [4] = tested on: Protein A negative Staphylococcus aureus derived from strain 8325-4; experiment: Growth of S. aureus with sub-MIC antibiotic with or without mouse anti-sortase monoclonal antibody (OD600, 12 h); format: cell-based; conditions: sub-MIC antibiotic + tissue culture medium, no Ab
# From the text: In a separate set of experiments, we assessed the effect of anti-sortase antibodies, in the presence and absence of antibiotic, on the growth of the staphylococci. Monoclonal supernatants were used for these experiments and tissue culture media used as controls. […] Exemplary growth curve results with monoclonal antibody 7C2 at 1:10 dilution are depicted in FIG. 5. The growth results are tabulated in TABLE 3 below based on final OD readings of multiple growth experiments. In each instance, significant growth inhibition is observed with a combination of sub-MIC antibiotics and anti-sortase antibody.
# Protein A negative Staphylococcus aureus derived from strain 8325-4 was grown to OD600 0.5 in Brain-Heart Infusion medium at 37° C. (Patel A H et al (1987) Infect Immun 55(12):3103-3110). When applicable, antibiotics were added to the media at sub-MIC doses.
# Mouse anti-sortase monoclonals were added to each cell-antibiotic culture at a dilution of either 1:10 or 1:100. OD600 values were measured every 5 mins for 12 hours in a 96-well spectrophotometer.
# [5] = D-Ala-D-Ala termini replaced with D-Ala-D-Lac in VRE; cited from earlier work
# sortase, sequence (Q2FV99 whole entry): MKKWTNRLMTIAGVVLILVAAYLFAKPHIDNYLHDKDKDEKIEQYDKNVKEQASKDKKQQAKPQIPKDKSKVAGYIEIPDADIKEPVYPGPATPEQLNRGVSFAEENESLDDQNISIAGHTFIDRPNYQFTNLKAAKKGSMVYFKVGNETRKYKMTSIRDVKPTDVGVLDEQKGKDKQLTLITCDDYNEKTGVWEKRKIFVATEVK
compound,measurement,setting,value
C[N+](C)(C)CCSS(C)(=O)=O [MTSET],sortase inhibition,[1],inhibit sortase in vitro and in vivo
gentamicin,HA-1A binding after exposure to the antibiotic,[2],not enhanced
Penicillin [PCN],highest dilution of antibiotic showing normal growth (sub-MIC used in experiments),[3],0.02 µg/mL
same,growth of staphylococci in the presence of sub-MIC of antibiotic,[3],grow similar to control bacteria without antibiotic
same,Average OD,[4]; control of Ab 1:10,0.2446
same,Final OD Reading 1,[4]; control of Ab 1:10,0.218
same,Final OD Reading 2,[4]; control of Ab 1:10,0.2712
same,Average OD,[4]; control of Ab 1:100,0.3534
same,Final OD Reading 1,[4]; control of Ab 1:100,0.3508
same,Final OD Reading 2,[4]; control of Ab 1:100,0.3561
"CC1(C)S[C@@H]2[C@H](NC(=O)[C@H](N)c3ccccc3)C(=O)N2[C@H]1C(=O)O [AMP, Ampicillin]",highest dilution of antibiotic showing normal growth (sub-MIC used in experiments),[3],0.1 µg/mL
same,growth of staphylococci in the presence of sub-MIC of antibiotic,[3],grow similar to control bacteria without antibiotic
same,Average OD,[4]; control of Ab 1:10,0.3308
same,Final OD Reading 1,[4]; control of Ab 1:10,0.2975
same,Final OD Reading 2,[4]; control of Ab 1:10,0.3641
same,Average OD,[4]; control of Ab 1:100,0.4421
same,Final OD Reading 1,[4]; control of Ab 1:100,0.4216
same,Final OD Reading 2,[4]; control of Ab 1:100,0.4627
CC(C)(O/N=C(\C(=O)N[C@@H]1C(=O)N2C(C(=O)[O-])=C(C[n+]3ccccc3)CS[C@H]12)c1csc(N)n1)C(=O)O [caftazidime],HA-1A binding after exposure to the antibiotic,[2],dose-dependent enhancement of HA-1A binding
CS(=O)(=O)SCCS(=O)(=O)O [(2-sulfonatoethyl)methane-thiosulfonate],sortase inhibition,[1],inhibit sortase in vitro and in vivo
CN[C@H](CC(C)C)C(=O)N[C@H]1C(=O)N[C@@H](CC(N)=O)C(=O)N[C@H]2C(=O)N[C@H]3C(=O)N[C@H](C(=O)N[C@H](C(=O)O)c4cc(O)cc(O)c4-c4cc3ccc4O)[C@H](O)c3ccc(c(Cl)c3)Oc3cc2cc(c3O[C@@H]2O[C@H](CO)[C@@H](O)[C@H](O)[C@H]2O[C@H]2C[C@](C)(N)[C@H](O)[C@H](C)O2)Oc2ccc(cc2Cl)[C@H]1O [vancomycin],decrease in vancomycin affinity,[5],1000 fold
